According to article PMC9572397, “Garcinia cambogia Phenolics as Potent Anti-COVID-19 Agents: Phytochemical Profiling, Biological Activities, and Molecular Docking” (Plants, 2022):
pIC50: −log10 of the molar value.

Target: SARS-CoV-2 3CL Protease (Severe acute respiratory syndrome coronavirus 2, UniProt P0DTD1)
Experiment: 3CL protease SARS-CoV-2 activity (M^Pro assay), fluorescence kit
Type: biochemical
Settings: for Kinetic Activity: positive control 120; for ∆RFU: ∆T 30, positive control 100

Row | Structure (SMILES) | pIC50 | Kinetic Activity (Conc. 0.1) | ∆RFU (Conc. 0.1) | Kinetic Activity (Conc. 1) | ∆RFU (Conc. 1) | Kinetic Activity (Conc. 10) | ∆RFU (Conc. 10) | Kinetic Activity (Conc. 100) | ∆RFU (Conc. 100) | reduction of the protease activity (in words) (final concentration of 50 μM, compared to the plumbagin positive standard)
1 | O=c1cc(-c2ccc(O)c(-c3c(O)cc(O)c4c(=O)cc(-c5ccc(O)cc5)oc34)c2)oc2cc(O)cc(O)c12 [Compound 2, amentoflavone] | 3.87 | 117.505 | 97.92 | 112.981 | 94.15 | 94.7529 | 78.96 | 44.4244 | 37.02 | 
2 | O=c1cc(-c2ccc(O)cc2)oc2c([C@@H]3O[C@H](CO)[C@@H](O)[C@H](O)[C@H]3O)c(O)cc(O)c12 [Compound 3, vitexin] | 3.64 | 117.109 | 97.59 | 110.257 | 91.88 | 99.133 | 82.61 | 46.7405 | 38.95 | 
3 | C[C@@H]1O[C@@H](OC[C@H]2O[C@@H](Oc3c(-c4ccc(O)c(O)c4)oc4cc(O)cc(O)c4c3=O)[C@H](O)[C@@H](O)[C@@H]2O)[C@H](O)[C@H](O)[C@H]1O [Compound 4, rutin] |  | 116.077 | 96.73 | 110.065 | 91.72 | 92.9049 | 77.42 | 32.3043 | 26.92 | 
4 | C[C@@H]1O[C@@H](O[C@H]2[C@H](Oc3cc(O)c4c(c3)O[C@H](c3ccc(O)cc3)CC4=O)O[C@H](CO)[C@@H](O)[C@@H]2O)[C@H](O)[C@H](O)[C@H]1O [Compound 5, naringin] | 4.54 | 117.637 | 98.03 | 101.965 | 84.97 | 80.2328 | 66.86 | 25.8243 | 21.52 | significant reduction
5 | Oc1cc(O)c2c(c1)O[C@H](c1ccc(O)c(O)c1)[C@@H](O)C2 [Compound 6, catechin] | 4.04 | 113.953 | 94.96 | 107.173 | 89.31 | 83.2328 | 69.36 | 33.3003 | 27.75 | 
6 | O=C(O)/C=C/c1ccc(O)cc1 [Compound 7, p-coumaric acid] | 3.33 | 118.477 | 98.73 | 113.905 | 94.92 | 100.333 | 83.61 | 42.0724 | 35.06 | 
7 | O=C(O)c1cc(O)c(O)c(O)c1 [Compound 8, gallic acid] | 3.75 | 117.505 | 97.92 | 109.237 | 91.03 | 93.0969 | 77.58 | 29.8323 | 24.86 | 
8 | CC1=CC(=O)c2c(O)cccc2C1=O [Plumbagin, reference compound] | 4.06 | 115.069 | 95.89 | 102.853 | 85.71 | 77.9528 | 64.96 | 27.0243 | 22.52 | 
